Laboratory results taken from patent publication US20040186098A1 (Amgen Inc., priority 1997, published 2004).

System: hair cells in rat organ of Corti explant
Test: Organ of Corti (cochlea) explant culture, hair cell survival after neomycin
Format: cell-based
Description: The sensorineurotrophic compound stock solution was stored at room temperature and prepared fresh for each culture. The stock solution was diluted in 10 μl of 100% EtOH for every milligram of sensorineurotrophic compound in the stock solution (approximately 250 mM). This solution of 250 mM sensorineurotrophic compound in 100% EtOH was diluted in normal culture medium to working concentrations of 50000 nM, 5000 nM, 500 nM, 50 nM, 5000 pM, 500 pM, 50 pM, 10 pM, 5 pM, 1 pM, 0.5 pM, 0.1 pM, and 0.01 pM. […]
Organ of Corti explants were obtained from P3-P4 Wistar rats. […] The organ of Corti then was transferred to a 35-mm diameter Petri dish containing cold PBS supplemented with glucose and was ready to be cultured. […]
To identify and count hair cells in the organ of Corti, a direct immunostaining method was used to label the actin present naturally in the stereocilia bundles of the hair cells. […] The explants were observed under a Nikon Diaphot-300 inverted fluorescence microscope, using FITC filters and fluorescence optics.
In each cochlea, the number of hair cells was counted in 2-3 sections, 175 μm in length each. Only the sections in the middle turn of the cochlea were analyzed. […]

CCC(C)(C)C(=O)C(=O)N1CCC[C@H]1C(=O)OCCCc1cccnc1 [Compound I]
surviving hair cells (Compound I 0.05 pM together with 0.6 mM neomycin): 31.8%±16.4
loss of hair cells (Compound I 0.05 pM together with neomycin, neomycin alone 95%): around 70%
